# Where a name gives a salt, the structure may show the parent alone. Numbered stars: 1 amine (or outer) side, 2 acyl side, 3 side chain; on linkers, the order of the positions; unused ones are H or OH. Peptide text beside a SMILES is read from it. * marks the point of attachment. pNA = O=[N+]([O-])c1ccc(N*)cc1; Suc = O=C(CCC(=O)[*:2])[*:1]; Cbz = O=C(OCc1ccccc1)*
# Tests used:
# Assay type in all cases: biochemical, Fervidobacterium pennavorans
# [1] = test system: proteases of cell-free raw extract of strain W; test: Hydrolysis of chromogenic peptide substrates by the proteases (E405 value); conditions: 17 hours at 60° C., 0.2 mM substrate in phosphate buffer pH 7, 0.3 mg/ml raw enzyme extract, measuring stretch 1 cm
# Method: The hydrolysis of chromogenic peptide substrates by proteases of the […] (E405 value)
# In order to determine the substrate specificity of the proteases the cited chromogenic peptide substrates are incubated in a final concentration of 0.2 mM together with cell-free raw extract.
# The incubation takes place below the temperature optimum and pH optimum of the proteases in order to avoid a thermal and pH-dependent, non-enzymatic hydrolysis of the peptide substrates.
# 900 μl 0.2 mM (w/v) substrate solution in 50 mM Na-P-buffer, pH 7.0
# 100 μl enzyme specimen incubation for 17 h at 60° C.
# The released p-nitroaniline is subsequently measured immediately against a non-incubated blank reading at an extinction of 405 nm.
# [2] = test system: proteolytic activity of raw extract of strain W; test: Influence of metal ions on the proteolytic activity of the raw extract; conditions: 1 h room temperature with raw extract, then 1 h at 80° C. with 0.25 % substrate pH 10; for ca. % activity 1 mM: metal ion 1 mM; for ca. % activity 5 mM: metal ion 5 mM
# Method: Cells of a fermenter culture are macerated (approximately 1 g/20 ml Na-phosphate 50 mM pH 6.8 buffer) by ultrasound. (15 min, 50 %, stage (setting) 6-7, average sonication peak, Branson Sonifier). After microscopic control of successful maceration the raw extract is centrifuged for 20 min, 4° C., 35,000 xg. The supernatant obtained in this manner is used for the enzyme tests.
# (§1) 0.45 ml 0.25 % (w/v) casein solution (Hammersten Quality) in an appropriate B & R buffer (Britton & Robinson, J. Chem. Soc. (1931), p. 1456. A solution containing 0.4 M H3 PO4, 0.4M CH3 COOH and 0.4M H3 BO3 in water is adjusted to the desired pH with 0.2 N NaOH) is pipetted on ice with 0.05 ml enzyme-containing specimen into E-Cups and incubated, depending on the activity, up to 60 min at the optimal temperature for the enzyme (80° C.) and the optimal pH (10). The batch is then compounded for stopping off and precipitating the proteins with 0.5 ml 10 % (w/v) trichloroacetic acid (TCA), incubated for 15-30 min at room temperature and then centrifuged for 10 min at 13000 rpms in an Eppendorf centrifuge (Heraeus Sepatech, Osterode). The extinction of the clear supernatant is measured at 280 nm in a quartz cuvette against a non-incubated blank reading.
# (§2) In order to determine the enzyme activity, a tyrosine calibration curve is recorded in the range of 0-1 μM/batch. An enzyme activity (1 unit) is defined as that amount which released 1 μmole aromatic amino acids/min. The following computation results from the rise of the calibration curve: [formula] Production of the enzyme composition
# The metal ions are dissolved in a buffer, 50 mM Na--P; pH 6.8. 50 μl of this solution are incubated with 50 μl raw extract for 1 h at room temperature, then 400 μl substrate (0.25 %, pH 10) are added and incubated for 1 h at 80° C. TCA precipitation and determination of activity are carried out as described above.
# [3] = target: T1, proteases of the enzyme composition from microorganism strain W (Fervidobacterium pennivorans, UniProt Q93LQ6); test: biochemical; conditions: for remaining activity at 1000 µM / remaining activity at 5000 µM: 1 h; for remaining activity at 1000 µM: pH 10, read-out: Residual act. (1 mM); for remaining activity at 5000 µM: pH 10, read-out: Residual act. (5 mM); for Residual act. (1 mM): inhibitor 1 mM
# T1 construct: casein substrate, pH 10, 80 C
# T1 sequence (Q93LQ6 150-699): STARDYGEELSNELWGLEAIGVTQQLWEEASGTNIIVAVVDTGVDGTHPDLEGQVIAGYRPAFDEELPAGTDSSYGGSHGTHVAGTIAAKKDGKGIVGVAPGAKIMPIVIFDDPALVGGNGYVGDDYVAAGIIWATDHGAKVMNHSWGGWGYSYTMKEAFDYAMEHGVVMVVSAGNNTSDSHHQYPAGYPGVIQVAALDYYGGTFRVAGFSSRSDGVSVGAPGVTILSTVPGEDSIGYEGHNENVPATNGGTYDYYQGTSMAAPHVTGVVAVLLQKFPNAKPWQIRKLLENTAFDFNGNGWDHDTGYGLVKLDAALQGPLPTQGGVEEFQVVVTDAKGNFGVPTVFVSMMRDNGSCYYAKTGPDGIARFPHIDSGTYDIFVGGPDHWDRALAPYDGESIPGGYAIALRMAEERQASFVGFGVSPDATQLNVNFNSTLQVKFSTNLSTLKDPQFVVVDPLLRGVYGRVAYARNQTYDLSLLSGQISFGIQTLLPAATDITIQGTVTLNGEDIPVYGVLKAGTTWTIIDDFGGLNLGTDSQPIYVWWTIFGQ
# Method: as §1, §2
# Phenylmethylsulfonyl fluoride (PMSF) and diisopropylfluorophosphate (DFP) bond to the OH group of the serine in the active center of serine proteases and inhibit the latter irreversibly. Ethylene diamine tetraacetate Na2 salt (EDTA) is a metal chelating agent and inhibits metalloproteases.
# 470 μl 0.25 % (w/v) casein in […], pH 10--buffer (B & R)
# 5 μl inhibitor stock [strain]solution (see below)
# When using 5 μl inhibitor stock solution the final concentration corresponds to 1 mM. When using 25 μl inhibitor solution (final concentration 5 mM), only 450 μl substrate solution are accordingly used. The batches are at first incubated without substrate at room temperature (1 h) and then with substrate for 1 h at the temperature which is optimum for the enzyme.
# After the incubation the reaction is stopped with 500 μl of a 10 % (w/v) solution of trichloroacetic acid and the remaining activity determined as described above. The following inhibitor solutions are used:
# PMSF 17.3 % (w/v) in ethanol
# EDTA 3.56 % (w/v) in H2 O bidistillate
# Iodoacetate 14.4 % (w.v) in H2 O bidistillate
# [4] = 1 h preincubation at room temperature, then 1 h with casein, pH 10, optimum temperature, without inhibitor = 100%, approximate values
Compound,ca. % activity 1 mM [2] [%],ca. % activity 5 mM [2] [%],also measured
N=C(N)NCCCC(NC(=O)c1ccccc1)C(=O)Nc1ccc([N+](=O)[O-])cc1 (racemic) [benzoyl-DL-Arg-pNA],–,–,E405 value (in comparison to blank value) [1]: below 0.1
[Ca+2].[Cl-].[Cl-] [CaCl2],85,117,–
[Cl-].[Cl-].[Co+2] [CoCl2],143,187,–
[Cl][Cu][Cl] [CuCl2],17,0,–
"O=C(O)CN(CCN(CC(=O)O)CC(=O)O)CC(=O)O [EDTA, Ethylene diamine tetraacetate Na2 salt]",–,–,remaining activity at 1000 µM [3]: 93%; remaining activity at 5000 µM [3]: 85%
[Cl][Fe][Cl] [FeCl2],127,0,–
[Cl][Fe]([Cl])[Cl] [FeCl3],93,0,–
O=C(O)CI [Iodoacetate],–,–,remaining activity at 1000 µM [3]: 83%; remaining activity at 5000 µM [3]: 76%
[Cl-].[Cl-].[Mg+2] [MgCl2],171,125,–
[Cl][Mn][Cl] [MnCl2],110,120,–
C[C@H](NC(=O)CCC(=O)O)C(=O)N[C@@H](C)C(=O)N1CCC[C@H]1C(=O)N[C@@H](Cc1ccccc1)C(=O)Nc1ccc([N+](=O)[O-])cc1 [N-succinyl-Ala-Ala-Pro-Phe-pNA] (Suc-AAPF-pNA),–,–,E405 value (in comparison to blank value) [1]: > 0.5
O=C(O)CCC(=O)N[C@@H](Cc1ccccc1)C(=O)Nc1ccc([N+](=O)[O-])cc1 [N-succinyl-Phe-pNA],–,–,E405 value (in comparison to blank value) [1]: > 0.5
[Cl-].[Na+] [NaCl],86,116,–
O=[Se]([O-])[O-].[Na+].[Na+] [NaSe2 O3],96,136,–
[Na+].[Na+].[O]=[W](=[O])([O-])[O-] [NaWO4],75,134,–
[Na+].[Na+].[O]=[Mo](=[O])([O-])[O-] [NcMoO4],91,95,–
[Cl][Ni][Cl] [NiCl2],72,44,–
"O=S(=O)(F)Cc1ccccc1 [PMSF, Phenylmethylsulfonyl fluoride]",–,–,"Residual act. (1 mM) [3, 4]: 14%; Residual act. (5 mM) ([3]; inhibitor 5 mM, 1 h preincubation at room temperature, then 1 h with casein, pH 10, optimum temperature, without inhibitor = 100%, approximate values): 10%"
NCCc1ccc(S(=O)(=O)F)cc1 [Pefabloc SC],–,–,"Residual act. (1 mM) [3, 4]: 83%"
O=S(=O)([O-])[O-].[O]=[V+2] [VOSO4],87,44,–
O=C(NCC(=O)N1CCC[C@H]1C(=O)Nc1ccc([N+](=O)[O-])cc1)OCc1ccccc1 [Z-Gly-Pro-pNA] (Cbz-Gly-Pro-pNA),–,–,E405 value (in comparison to blank value) [1]: below 0.1
[Cl-].[Cl-].[Zn+2] [ZnCl2],57,37,–
CC(=O)N[C@@H](Cc1ccc(O)cc1)C(=O)Nc1ccc([N+](=O)[O-])cc1 [acetyl-Tyr-pNA],–,–,E405 value (in comparison to blank value) [1]: below 0.1
NCCCC[C@H](NC(=O)c1ccccc1)C(=O)Nc1ccc([N+](=O)[O-])cc1 [benzoyl-Lys-pNA],–,–,E405 value (in comparison to blank value) [1]: below 0.1
AgCl2,0,0,–

# — patent US5569599A, “Kerainase from fervidobacterium pennavorans DSM 7003” (Degussa Aktiengesellschaft, priority 1992, dated 1996)
